According to ChEMBL document CHEMBL1122770, “Quantitative structure-activity relationship of insect juvenile hormone mimetic compounds” (J Med Chem, 1984):

Assays:
[1] = Partition coefficient (logP); format: physicochemical; settings: octanol/water
Tenebrio molitor [2] = assay: Juvenile hormone mimetic activity in Tenebrio molitor (yellow mealworm); format: functional; design: unit not given here
Tenebrio molitor [3] = assay: Tested for juvenile hormone mimetic activity in Tenebrio molitor (yellow mealworm) excluding from the analysis for activity against Tenebrio molitor; format: functional; design: unit not given here

SMILES	logP ([1]; read-out: logP)	logP [1]	pI50 (Tenebrio molitor [2])	pI50 (Tenebrio molitor [3])
COC(C)(C)CCCC(C)C/C=C/C(C)=C/C(=O)NC1CC1 (configuration not stated)	–	4.04	3.74	–
CCCOC(=O)/C=C(C)/C=C/CC(C)CCCC(C)C (configuration not stated)	7.28	–	2.71	–
CCOC(=O)/C=C(C)/C=C/CC(C)CCC(OC)C(C)C (configuration not stated)	5.54	–	2.54	–
COC(C)(C)CCCC(C)C/C=C/C(C)=C/C(=O)OC(C)C (configuration not stated)	5.95	–	–	–
CCNC(=O)OC(C)(C)CCCC(C)C/C=C/C(C)=C/C(=O)OC(C)C (configuration not stated)	6.06	–	1.79	–
CCCC(=O)/C=C(C)/C=C/CC(C)CCCC(C)C (configuration not stated)	6.81	–	4.7	–
CCNC(=O)OC(C)(C)CCCC(C)C/C=C/C(C)=C/C(=O)OCC (configuration not stated)	5.65	–	–	<0.55
CCNC(=O)/C=C(C)/C=C/CC(C)CCC=C(C)C (configuration not stated)	4.69	–	4.78	–
COC(CCC(C)C/C=C/C(C)=C/C(=O)OC(C)C)C(C)C (configuration not stated)	5.95	–	3.82	–
CC(/C=C/CC(C)CCCC(C)C)=C\C(=O)NCC(C)C (configuration not stated)	6.19	–	0.62	–
COC(C)(C)CCCC(C)C/C=C/C(C)=C/C(=O)OCCC(C)C (configuration not stated)	7.03	–	0.81	–
C/C=C/COC(=O)/C=C(C)/C=C/CC(C)CCCC(C)(C)OC (configuration not stated)	6.07	–	2.25	–
CCOC(=O)/C=C(C)/C=C/CC(C)CCC(=O)C(C)C (configuration not stated)	4.3	–	–	<0.45
CCNC(=O)/C=C(C)/C=C/CC(C)CCCC(C)C (configuration not stated)	5.24	–	4.76	–
CCOC(=O)/C=C(C)/C=C/CC(C)CCCC(C)CC (configuration not stated)	7.81	–	3.47	–
C=CCOC(=O)/C=C(C)/C=C/CC(C)CCCC(C)(C)OC (configuration not stated)	5.53	–	1.41	–
C=CCOC(=O)/C=C(C)/C=C/CC(C)CCCC(C)C (configuration not stated)	6.73	–	3.51	–
CC(/C=C/CC(C)CCCC(C)C)=C\C(=O)OCC(C)C (configuration not stated)	7.69	–	3.8	–
C=C(C)CCCC(C)C/C=C/C(C)=C/C(=O)OCC (configuration not stated)	6.19	–	2.49	–
C#CCOC(=O)/C=C(C)/C=C/CC(C)CCCC(C)(C)OC (configuration not stated)	4.66	–	1.34	–
CC(/C=C/CC(C)CCCC(C)C)=C\C(=O)Oc1ccccc1 (configuration not stated)	7.67	–	1.5	–
CCOC(=O)/C=C(C)/C=C/CC(C)CCC1OC1(C)C (configuration not stated)	4.76	–	2.22	–
CCC(C)OC(=O)/C=C(C)/C=C/CC(C)CCCC(C)C (configuration not stated)	7.69	–	3.87	–
CC(/C=C/CC(C)CCCC(C)C)=C\C(=O)SC(C)C (configuration not stated)	8.39	–	4.22	–
CC(/C=C/CC(C)CCCC(C)(C)OC=O)=C\C(=O)OC(C)C (configuration not stated)	5.4	–	4.43	–
COC(C)(C)CCCC(C)C/C=C/C(C)=C/C(=O)OC1CCC1 (configuration not stated)	6.44	–	2.79	–
COC(C)(C)CCCC(C)C/C=C/C(C)=C/C(=O)OC1CC1 (configuration not stated)	5.71	–	2.89	–
C=CC(C)OC(=O)/C=C(C)/C=C/CC(C)CCCC(C)(C)OC (configuration not stated)	5.94	–	4.39	–

SMILES	logP ([1]; read-out: logP)	logP [1]	pI50 (Tenebrio molitor [2])	pI50 (Tenebrio molitor [3])
CC(/C=C/CC(C)CCCC(C)C)=C\C(=O)CC(C)C (configuration not stated)	7.22	–	3.14	–
CC(/C=C/CC(C)CCCC(C)C)=C\C(=O)NC(C)C (configuration not stated)	5.65	–	4.33	–
CCOC(=O)/C=C(C)/C=C/CC(C)CCC(SCC)C(C)C (configuration not stated)	6.9	–	–	1.51
C=CCNC(=O)/C=C(C)/C=C/CC(C)CCCC(C)C (configuration not stated)	5.23	–	4.33	–
C=C(C)CCCC(C)C/C=C/C(C)=C/C(=O)OC(C)C (configuration not stated)	6.6	–	4.1	–
CC(C)=CCCC(C)C/C=C/C(C)=C/C(=O)OC(C)C (configuration not stated)	6.6	–	3.67	–
CC(=O)OC(C)(C)CCCC(C)C/C=C/C(C)=C/C(=O)OC(C)C (configuration not stated)	5.98	–	3.81	–
COC(C)(C)CCCC(C)C/C=C/C(C)=C/C(=O)NC(C)C (configuration not stated)	4.45	–	4.21	–
CC(/C=C/CC(C)CCCC(C)(C)OC(C)C)=C\C(=O)OC(C)C (configuration not stated)	6.9	–	3.01	–
CCN(CC)C(=O)/C=C(C)/C=C/CC(C)CCC1OC1(C)C (configuration not stated)	4.04	–	3.85	–
CCN(CC)C(=O)/C=C(C)/C=C/CC(C)CCC=C(C)C (configuration not stated)	5.47	–	1.7	–
CCOC(=O)/C=C(C)/C=C/CC(C)CCC=C(C)C (configuration not stated)	6.19	–	2.38	–
CCOC(=O)/C=C(C)/C=C/CC(C)CCC(OC)C(C)(C)OC (configuration not stated)	4.34	–	1.31	–
CCN(CC)C(=O)/C=C(C)/C=C/CC(C)CCCC(C)C (configuration not stated)	6.02	–	4.63	–
COC(C)(C)C(O)CCC(C)C/C=C/C(C)=C/C(=O)OC(C)C (configuration not stated)	3.86	–	2.61	–
COC(=O)/C=C(C)/C=C/CC(C)CCCC(C)C (configuration not stated)	6.2	–	2.2	–
COC(CCC(C)C/C=C/C(C)=C/C(=O)OC(C)C)C(C)(C)OC (configuration not stated)	4.75	–	3.88	–
CC(/C=C/CC(C)CCCC(C)C)=C\C(=O)c1ccccc1 (configuration not stated)	7.26	–	3.52	–
CCOC(=O)/C=C(C)/C=C/CC(C)CCC(O)C(C)C (configuration not stated)	4.65	–	–	<0.45
CC(/C=C/CC(C)CCCC(C)C)=C\C(=O)N(C)C (configuration not stated)	4.94	–	3.7	–
COC(C)(C)CCCC(C)C/C=C/C(C)=C/C(=O)OC1CCCC1 (configuration not stated)	7.01	–	4.32	–
CC(/C=C/CC(C)CCCC(C)C)=C\C(=O)OC(C)C (configuration not stated)	7.15	–	4.03	–
CC#CCOC(=O)/C=C(C)/C=C/CC(C)CCCC(C)C (configuration not stated)	6.4	–	2.12	–
CCC(=O)/C=C(C)/C=C/CC(C)CCCC(C)C (stereo in doubt; 83)	6.27	–	4.89	–
CCC(=O)/C=C(C)/C=C/CC(C)CCCC(C)C (stereo in doubt; 101)	–	6.68	4.1	–
CCOC(=O)/C=C(C)/C=C/CC(C)CCCC(C)C (configuration not stated) [HYDROPRENE]	6.74	–	–	–
C#CCOC(=O)/C=C(C)/C=C/CC(C)CCCC(C)C (configuration not stated) [KINOPRENE]	5.86	–	–	–

Further lines, with some results ahead:

logP ([1]; read-out: logP)	logP [1]	SMILES	pI50 (Tenebrio molitor [2])	pI50 (Tenebrio molitor [3])
7.15	–	CCOC(=O)/C=C(C)/C=C/CC(C)CCCC(C)(C)C (configuration not stated)	2.5	–
5.89	–	CCSC(=O)/C=C(C)/C=C/CC(C)CCCC(C)(C)O (configuration not stated)	3.43	–
6.77	–	CSC(C)(C)CCCC(C)C/C=C/C(C)=C/C(=O)OC(C)C (configuration not stated)	3.77	–
5.57	–	CCOC(=O)/C=C(C)/C=C/CC(C)CCCC(C)(C)OC(C)=O (configuration not stated)	2.28	–
4.79	–	COC(C)(C)CCCC(C)C/C=C/C(C)=C/C(=O)O (configuration not stated)	–	–
5.07	–	C#CCSC(=O)/C=C(C)/C=C/CC(C)CCCC(C)C (configuration not stated)	3.47	–
8.39	–	CCSC(=O)/C=C(C)/C=C/CC(C)CCCC(C)(C)C (configuration not stated)	–	–
6.36	–	CCOC(=O)/C=C(C)/C=C/CC(C)CCCC(C)(C)SC (configuration not stated)	2.24	–
7.56	–	CC(/C=C/CC(C)CCCC(C)(C)C)=C\C(=O)OC(C)C (configuration not stated)	–	–
7.19	–	COC(C)(C)CCCC(C)C/C=C/C(C)=C/C(=O)SC(C)C (configuration not stated)	5.04	–
6.77	–	C=CCSC(=O)/C=C(C)/C=C/CC(C)CCCC(C)(C)OC (configuration not stated)	2.06	–
5.9	–	C#CCSC(=O)/C=C(C)/C=C/CC(C)CCCC(C)(C)OC (configuration not stated)	2.15	–
6.36	–	COC(C)(C)CCCC(C)C/C=C/C(C)=C/C(=O)OC(C)(C)C (configuration not stated)	3.81	–
7.44	–	CSC(=O)/C=C(C)/C=C/CC(C)CCCC(C)C (configuration not stated)	3.25	–
4.18	–	CCC(=O)/C=C(C)/C=C/CC(C)CCCC(C)(C)O (configuration not stated)	–	6.04
6.78	–	CCSC(=O)/C=C(C)/C=C/CC(C)CCCC(C)(C)OC (configuration not stated)	3.49	–
6.49	–	CCC(C)OC(=O)/C=C(C)/C=C/CC(C)CCCC(C)(C)OC (configuration not stated)	4.67	–
5.07	–	CCC(=O)/C=C(C)/C=C/CC(C)CCCC(C)(C)OC (configuration not stated)	5.78	–
6.44	–	CCOC(=O)/C=C(C)/C=C/CC(C)CCCC(C)(C)Cl (configuration not stated)	3.5	–
6.62	–	CCCCOC(=O)/C=C(C)/C=C/CC(C)CCCC(C)(C)OC (configuration not stated)	0.93	–

logP ([1]; read-out: logP)	logP [1]	SMILES	pI50 (Tenebrio molitor [2])	pI50 (Tenebrio molitor [3])
7.97	–	C=CCSC(=O)/C=C(C)/C=C/CC(C)CCCC(C)C (configuration not stated)	3.26	–
5.65	–	CCNC(=O)/C=C(C)/C=C/CC(C)CCCC(C)(C)C (configuration not stated)	4.45	–
6.85	–	CC(/C=C/CC(C)CCCC(C)(C)Cl)=C\C(=O)OC(C)C (configuration not stated)	3.75	–
6.24	–	COC(C)(C)CCCC(C)C/C=C/C(C)=C/C(=O)SC (configuration not stated)	3.47	–
3.74	–	COC(C)(C)CCCC(C)C/C=C/C(C)=C/C(=O)N(C)C (configuration not stated)	3.8	–
5.06	–	CC(/C=C/CC(C)CCCC(C)(C)O)=C\C(=O)OC(C)C (configuration not stated)	4.33	–
7.98	–	CCSC(=O)/C=C(C)/C=C/CC(C)CCCC(C)C (configuration not stated)	4.05	–
4.82	–	CCN(CC)C(=O)/C=C(C)/C=C/CC(C)CCCC(C)(C)OC (configuration not stated)	5.51	–
3.52	–	COC(C)(C)CCCC(C)C/C=C/C(C)=C/C(N)=O (configuration not stated)	0.05	–
6.49	–	CCOC(C)(C)CCCC(C)C/C=C/C(C)=C/C(=O)OC(C)C (configuration not stated)	4.51	–
6.08	–	CCCOC(=O)/C=C(C)/C=C/CC(C)CCCC(C)(C)OC (configuration not stated)	1.65	–
6.02	–	COC(C)(C)CCCC(C)C/C=C/C(C)=C/C(=O)CC(C)C (configuration not stated)	3.49	–
6.81	–	CCSC(=O)/C=C(C)/C=C/CC(C)CCCC(C)(C)OC(C)=O (configuration not stated)	2.83	–
5	–	COC(=O)/C=C(C)/C=C/CC(C)CCCC(C)(C)OC (configuration not stated)	0.89	–
6.02	–	CCC(C)C(=O)/C=C(C)/C=C/CC(C)CCCC(C)(C)OC (configuration not stated)	3.54	–
4.04	–	CCNC(=O)/C=C(C)/C=C/CC(C)CCCC(C)(C)OC (configuration not stated)	–	5.95
5.54	–	CCOC(=O)/C=C(C)/C=C/CC(C)CCCC(C)(C)OC (configuration not stated)	1.92	–
6.08	–	CCOC(=O)/C=C(C)/C=C/CC(C)CCCC(C)(C)OCC (configuration not stated)	2.77	–
5.61	–	CCCC(=O)/C=C(C)/C=C/CC(C)CCCC(C)(C)OC (configuration not stated)	5.73	–
